According to patent publication US20090156477A1, “Compositions and Methods for Regulating Inflammatory Responses” (Massachusetts Institute of Technology, priority 2005, published 2009):
Entries after “also recorded” stand apart in the source; their conditions may differ.

B1: FGF7: Recombinant human FGF7 from Sigma (protein, UniProt P21781 32-194, looked up)
Fibroblast growth factor 7: CNDMTPEQMATNVNCSSPERHTRSYDYMEGGDIRVRRLFCRTQWYLRIDKRGKVKGTQEMKNNYNIMEIRTVAVGIVAIKGVESEFYLAMNKEGKLYAKKECNEDCNFKELILENHYNTYASAKWTHNGGEMFVALNQKGIPVRGKKTKKEQKTAHFLPMAIT

Key:
caveolin-1 = assay: Immunohistochemistry for caveolin-1 in Caco-2 cells; assay type: cell-based, human; conditions: four hours after administration
Description: Caco-2 cells were grown to just prior to confluency on collagen IV coated glass slides. Cells were treated with PBS, FGF1, FGF2 and FGF7, and were incubated at 37° C. in a 5% CO2 humidified incubator for 1 hour, 4 hours, 24 hours or 48 hours, as noted. Cells were washed with PBS, fixed with 3.7% formalin for 10 minutes and washed again with PBS. Cells were treated with 0.1% Triton x-100 for 5 minutes to extract lipids. Cells were washed with PBS and preincubated with PBS supplemented with 1% bovine serum albumin. Primary antibodies were added for 4 hours at room temperature, and cells were washed with PBS. […]
Cells, except those stained with phalloidin, were washed with PBS and stained with diamidino-2-phenylindole (DAPI) for 5 minutes at room temperature (Molecular Probes). […] Cells were examined by confocal microscopy (ZO-1 and phalloidin only), or by fluorescence microscopy. A Nikon HB10101AF fluorescence microscope was used and images were captured at room temperature using a Hitachi HVC20 camera and Scion image acquisition software. […]

occludin and ZO-1 = assay: Immunostaining for occludin and ZO-1 in Caco-2 cells; assay type: cell-based, human; conditions: 100 ng/ml
Description: To determine occludin and ZO-1 expression patterns, cells were plated on transwells as described for TER assays. Media from the basolateral chamber was removed every other day and replaced with new media. Resistances were measured for 10 days, and either 100 ng/ml FGF2, 100 ng/ml FGF7 or 10 μl PBS were added on days 10 and 12. On day 15, media was removed from both the apical and basolateral chambers, and the apical chamber was washed twice with PBS. One ml of 1% (w/v) paraformaldehyde in cacodylate buffer was added to each well, the plates were incubated for 10 minutes at room temperature, and the wells were washed once in PBS. One ml permeabilization media, consisting of 0.2% Triton X-100 and 2% BSA in PBS, was added to each well. After a 10 minute incubation at room temperature, wells were washed three times. 20 μl primary antibodies (rabbit polyclonal anti-human or occludin rabbit polyclonal anti-human ZO-1) diluted 1:20 in 1% goat serum, 0.25% sodium azide in PBS, were added to the apical chamber of three wells per antibody per ligand, and plates were incubated for 1 hour in a humidified chamber. […] Staining was then visualized by fluorescence microscopy. […] A Nikon HB10101AF fluorescence microscope was used to capture images at room temperature using a Hitachi HVC20 camera and Scion image acquisition software. […]

Molecule	caveolin-1 localization (caveolin-1)	membrane ruffling (tight junction protein staining) (occludin and ZO-1)
FGF1: Recombinant human FGF1 from Amgen	localized surrounding the nucleus	–
FGF2: Recombinant human FGF2, produced as described	–	induced ruffling of cell membranes; also recorded: induced notable membrane ruffling
B1	–	induced ruffling of cell membranes; also recorded: induced notable membrane ruffling
